From PubChem BioAssay (NCI)
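Protocol summary: plate cells (96-well), add compound at 5 concentrations, incubate 48 h, interpolate endpoints linearly. GI50 is the concentration that inhibits growth by half. TGI: total growth inhibition.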

How the values were obtained:
Experiment in all cases: NCI anticancer screen, dose series, 48 h
U251 CNS = test system: U251 CNS
HL-60(TB) leukemia = test system: HL-60(TB) leukemia
MCF7 breast = test system: MCF7 breast
OVCAR-8 ovarian = test system: OVCAR-8 ovarian
NCI-H460 lung = test system: NCI-H460 lung
HCC-2998 colon = test system: HCC-2998 colon
OVCAR-5 ovarian = test system: OVCAR-5 ovarian
A549 NSCLC = test system: A549 NSCLC
HS 578T breast = test system: HS 578T breast
SNB-19 CNS = test system: SNB-19 CNS

Row | SMILES | TGI (U251 CNS) [µM] | TGI (HL-60(TB) leukemia) [µM] | TGI (MCF7 breast) [µM] | TGI (OVCAR-8 ovarian) [µM] | TGI (NCI-H460 lung) [µM] | TGI (HCC-2998 colon) [µM] | TGI (OVCAR-5 ovarian) [µM] | TGI (A549 NSCLC) [µM] | TGI (HS 578T breast) [µM] | TGI (SNB-19 CNS) [µM] | GI50 (U251 CNS) [µM] | GI50 (HL-60(TB) leukemia) [µM] | GI50 (OVCAR-8 ovarian) [µM] | GI50 (OVCAR-5 ovarian) [µM] | GI50 (A549 NSCLC) [µM]
1 | O=c1c2[nH]cnc2n(-c2ccccc2)c(=S)n1-c1ccccc1 | > 100 | > 100 | > 100 | > 100 | > 100 | > 100 | > 100 | > 100 | – | – | – | – | – | – | –
2 | CC(C)CNP(=O)(NCC(C)C)Oc1ccc(CC(NC(=O)OCc2ccccc2)C(=O)OCc2ccccc2)cc1 (configuration not stated) | 30.1 | – | 24.7 | 32.7 | 33.4 | 30.7 | > 100 | > 100 | 85.8 | 57.8 | – | – | – | – | –
3 | Cc1n[nH]c(=O)n1-n1cccc1 | > 100 | – | > 100 | > 100 | > 100 | > 100 | > 100 | > 100 | > 100 | > 100 | – | – | – | – | –
4 | COC(=O)[C@H](C)NC(=O)[C@H](NS(=O)(=O)c1nc2ccccc2s1)c1ccccc1 | 41 | > 100 | > 100 | 33.7 | > 100 | 44.5 | – | – | 36.5 | 73.3 | – | – | – | – | –
5 | Cc1ccc(C(=O)Nc2ccc(CP(=O)(O)O)cc2CP(=O)(O)O)cc1N | > 100 | > 100 | > 100 | > 100 | – | > 100 | > 100 | > 100 | > 100 | > 100 | – | – | – | – | –
6 | CN1C(c2ccccc2)CC(O)CC1c1ccccc1 (configuration not stated) | > 100 | > 100 | – | > 100 | > 100 | – | > 100 | > 100 | – | > 100 | – | – | – | – | –
7 | COc1ccc(/C(C=O)=C(\Cl)c2ccc(OC)c(OC)c2)cc1 | > 100 | > 100 | – | > 100 | > 100 | > 100 | > 100 | > 100 | – | > 100 | – | – | – | – | –
8 | Cc1cccc2c1nc1n2C(=O)c2ccccc2-1 | > 100 | > 100 | > 100 | > 100 | > 100 | > 100 | > 100 | > 100 | – | > 100 | – | – | – | – | –
9 | COC(=O)c1c(O)ccc2c1c1c(n2Cc2ccc(OC)cc2)C(=O)c2ccccc2C1 | > 100 | > 100 | > 100 | > 100 | > 100 | – | – | > 100 | > 100 | > 100 | – | – | – | – | –
10 | CC(C)(NO)/C(=N\O)c1ccccc1 | > 10 | > 10 | > 10 | > 10 | > 10 | > 10 | > 10 | – | – | > 10 | – | – | – | – | –
11 | NC(=O)CSc1nc2ccccc2c(=O)n1N | > 100 | – | > 100 | > 100 | > 100 | > 100 | > 100 | > 100 | > 100 | > 100 | – | – | – | – | –
12 | O=C1c2ccccc2-c2c1c1ccccc1c(=O)n2CCCNCCNCCCn1c2c(c3ccccc3c1=O)C(=O)c1ccccc1-2 | 2.33 | > 100 | – | 1.66 | – | – | 2.93 | 1.63 | – | – | 0.118 | 3.51 | < 0.01 | 1.29 | 0.0534
